Measurements from the supplement of paper PMC10307832.

Tests used:
Experiment in all cases: relative viability (nuclei count vs DMSO), 5 days (fraction); higher = more cells survive
[1] = tested on: Calu-6
How it was run: (§1)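 One day after seeding in 1536-well plates, lung cancer cell lines were dosed by pin tool. Dosing was either single-drug or a fixed anchor-drug dose plus five library-drug doses (not always all listed) in √10 steps. After 5 days, nuclei were stained in one fix-and-stain step and counted on 4× images, and relative viability is the nuclei count of treated wells over that of vehicle wells, given as the median of duplicate plates.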

[2] = tested on: NCI-H1651
How it was run: as §1

[3] = tested on: CAL-12T
How it was run: as §1

[4] = tested on: A549
How it was run: as §1

[5] = tested on: EBC-1
How it was run: as §1

[6] = tested on: NCI-H1703
How it was run: as §1

[7] = tested on: NCI-H1755
How it was run: as §1

[8] = tested on: IA-LM
How it was run: as §1

[9] = tested on: NCI-H1299
How it was run: as §1

[10] = tested on: NCI-H1648
How it was run: as §1

[11] = tested on: LK-2
How it was run: as §1

[12] = tested on: A-427
How it was run: as §1

Cc1cn(-c2cc(NC(=O)c3ccc(C)c(Nc4nccc(-c5cccnc5)n4)c3)cc(C(F)(F)F)c2)cn1 [Nilotinib] + O=C(c1cc(Cc2n[nH]c(=O)c3ccccc23)ccc1F)N1CCN(C(=O)C2CC2)CC1 [Olaparib] (partner 8 µM)
relative viability ([1]; first compound 0.001 µM): 0.525
relative viability ([1]; first compound 0.003162 µM): 0.693
relative viability ([1]; first compound 0.01 µM): 0.583
relative viability ([1]; first compound 0.03162 µM): 0.409
relative viability ([1]; first compound 0.1 µM): 0.494
relative viability ([2]; first compound 0.001 µM): 0.173
relative viability ([2]; first compound 0.003162 µM): 0.187
relative viability ([2]; first compound 0.01 µM): 0.168
relative viability ([2]; first compound 0.03162 µM): 0.156
relative viability ([2]; first compound 0.1 µM): 0.181
relative viability ([3]; first compound 0.001 µM): 0.648
relative viability ([3]; first compound 0.003162 µM): 0.677
relative viability ([3]; first compound 0.01 µM): 0.738
relative viability ([3]; first compound 0.03162 µM): 0.67
relative viability ([3]; first compound 0.1 µM): 0.793
relative viability ([4]; first compound 0.001 µM): 0.249
relative viability ([4]; first compound 0.003162 µM): 0.377
relative viability ([4]; first compound 0.01 µM): 0.334
relative viability ([4]; first compound 0.03162 µM): 0.241
relative viability ([4]; first compound 0.1 µM): 0.117
relative viability ([5]; first compound 0.001 µM): 0.67
relative viability ([5]; first compound 0.003162 µM): 0.804
relative viability ([5]; first compound 0.01 µM): 0.755
relative viability ([5]; first compound 0.03162 µM): 0.661
relative viability ([5]; first compound 0.1 µM): 0.631
relative viability ([6]; first compound 0.001 µM): 0.302
relative viability ([6]; first compound 0.003162 µM): 0.201
relative viability ([6]; first compound 0.01 µM): 0.234
relative viability ([6]; first compound 0.03162 µM): 0.174
relative viability ([6]; first compound 0.1 µM): 0.212
relative viability ([7]; first compound 0.001 µM): 0.839
relative viability ([7]; first compound 0.003162 µM): 1.02
relative viability ([7]; first compound 0.01 µM): 0.953
relative viability ([7]; first compound 0.03162 µM): 0.901
relative viability ([7]; first compound 0.1 µM): 0.784
relative viability ([8]; first compound 0.001 µM): 0.659
relative viability ([8]; first compound 0.003162 µM): 0.864
relative viability ([8]; first compound 0.01 µM): 0.758
relative viability ([8]; first compound 0.03162 µM): 0.664
relative viability ([8]; first compound 0.1 µM): 0.777
relative viability ([9]; first compound 0.001 µM): 0.886
relative viability ([9]; first compound 0.003162 µM): 1.01
relative viability ([9]; first compound 0.01 µM): 0.985
relative viability ([9]; first compound 0.03162 µM): 0.948
relative viability ([9]; first compound 0.1 µM): 0.664
relative viability ([10]; first compound 0.001 µM): 0.577
relative viability ([10]; first compound 0.003162 µM): 0.909
relative viability ([10]; first compound 0.01 µM): 0.903
relative viability ([10]; first compound 0.03162 µM): 0.621
relative viability ([10]; first compound 0.1 µM): 0.893
relative viability ([11]; first compound 0.001 µM): 0.673
relative viability ([11]; first compound 0.003162 µM): 0.947
relative viability ([11]; first compound 0.01 µM): 0.839
relative viability ([11]; first compound 0.03162 µM): 0.453
relative viability ([11]; first compound 0.1 µM): 0.681
relative viability ([12]; first compound 0.001 µM): 0.76
relative viability ([12]; first compound 0.003162 µM): 0.874
relative viability ([12]; first compound 0.01 µM): 0.86
relative viability ([12]; first compound 0.03162 µM): 0.804
relative viability ([12]; first compound 0.1 µM): 0.936

CCNC(=O)c1noc(-c2cc(C(C)C)c(O)cc2O)c1-c1ccc(CN2CCOCC2)cc1 [Luminespib] + O=C(c1cc(Cc2n[nH]c(=O)c3ccccc23)ccc1F)N1CCN(C(=O)C2CC2)CC1 [Olaparib] (partner 8 µM)
relative viability ([1]; first compound 0.002 µM): 0.652
relative viability ([1]; first compound 0.006325 µM): 0.545
relative viability ([1]; first compound 0.02 µM): 0.696
relative viability ([1]; first compound 0.06325 µM): 0.111
relative viability ([1]; first compound 0.2 µM): 0.098
relative viability ([2]; first compound 0.002 µM): 0.195
relative viability ([2]; first compound 0.006325 µM): 0.177
relative viability ([2]; first compound 0.02 µM): 0.251
relative viability ([2]; first compound 0.06325 µM): 0.181
relative viability ([2]; first compound 0.2 µM): 0.165
relative viability ([3]; first compound 0.002 µM): 0.671
relative viability ([3]; first compound 0.006325 µM): 0.679
relative viability ([3]; first compound 0.02 µM): 0.959
relative viability ([3]; first compound 0.06325 µM): 0.136
relative viability ([3]; first compound 0.2 µM): 0.182
relative viability ([4]; first compound 0.002 µM): 0.282
relative viability ([4]; first compound 0.006325 µM): 0.174
relative viability ([4]; first compound 0.02 µM): 0.194
relative viability ([4]; first compound 0.06325 µM): 0.0387
relative viability ([4]; first compound 0.2 µM): 0.0323
relative viability ([5]; first compound 0.002 µM): 0.794
relative viability ([5]; first compound 0.006325 µM): 0.586
relative viability ([5]; first compound 0.02 µM): 0.572
relative viability ([5]; first compound 0.06325 µM): 0.122
relative viability ([5]; first compound 0.2 µM): 0.124
relative viability ([6]; first compound 0.002 µM): 0.401
relative viability ([6]; first compound 0.006325 µM): 0.358
relative viability ([6]; first compound 0.02 µM): 0.651
relative viability ([6]; first compound 0.06325 µM): 0.127
relative viability ([6]; first compound 0.2 µM): 0.104
relative viability ([7]; first compound 0.002 µM): 0.917
relative viability ([7]; first compound 0.006325 µM): 0.808
relative viability ([7]; first compound 0.02 µM): 0.759
relative viability ([7]; first compound 0.06325 µM): 0.817
relative viability ([7]; first compound 0.2 µM): 0.794
relative viability ([8]; first compound 0.002 µM): 0.919
relative viability ([8]; first compound 0.006325 µM): 0.785
relative viability ([8]; first compound 0.02 µM): 0.816
relative viability ([8]; first compound 0.06325 µM): 0.0533
relative viability ([8]; first compound 0.2 µM): 0.0667
relative viability ([9]; first compound 0.002 µM): 0.954
relative viability ([9]; first compound 0.006325 µM): 0.921
relative viability ([9]; first compound 0.02 µM): 0.959
relative viability ([9]; first compound 0.06325 µM): 0.467
relative viability ([9]; first compound 0.2 µM): 0.147
relative viability ([10]; first compound 0.002 µM): 0.765
relative viability ([10]; first compound 0.006325 µM): 0.653
relative viability ([10]; first compound 0.02 µM): 0.784
relative viability ([10]; first compound 0.06325 µM): 0.505
relative viability ([10]; first compound 0.2 µM): 0.484
relative viability ([11]; first compound 0.002 µM): 0.884
relative viability ([11]; first compound 0.006325 µM): 0.89
relative viability ([11]; first compound 0.02 µM): 0.519
relative viability ([11]; first compound 0.06325 µM): 0.11
relative viability ([11]; first compound 0.2 µM): 0.114
relative viability ([12]; first compound 0.002 µM): 0.782
relative viability ([12]; first compound 0.006325 µM): 0.732
relative viability ([12]; first compound 0.02 µM): 0.716
relative viability ([12]; first compound 0.06325 µM): 0.445
relative viability ([12]; first compound 0.2 µM): 0.251
